Data reported in patent US11117900B2 (Vertex Pharmaceuticals Incorporated, priority 2012, dated 2021).

Tested on: HCT116 colorectal cancer cells
Assay: Cisplatin sensitization assay (96 h MTS cell viability);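 also: compound concentration needed to lower the IC50 of Cisplatin alone by a set fold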
Type: cell-based
Settings: Cisplatin sensitization value
Outline: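 HCT116 cells were dosed simultaneously with compound and cisplatin as a full matrix of 2-fold serial dilutions from 10 μM top final concentration. Incubation was 96 h at 37° C., 5% CO2, followed by 1 h with MTS reagent for the viability read-out. Sensitization values were binned into +++, ++ and + categories.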

Structure (SMILES)	Cisplatin Sensitization Assay
Nc1nn2cc(F)cnc2c1C(=O)Nc1cncc(Cl)c1N1CCC(C(=O)N2CCN3CCC2CC3)CC1 [I-G-66, N-(4-(4-(1,4-diazabicyclo[3.2.2]nonane-4-carbonyl)piperidin-1-yl)-5-chloropyridin-3-yl)-2-amino-6-fluoropyrazolo[1,5-a]pyrimidine-3-carboxamide]	+++ (Compounds with a Cisplatin sensitization value of <0.02 μM are marked with “+++.”)
Nc1nn2cc(F)cnc2c1C(=O)Nc1cnccc1N1CCN(S(=O)(=O)C2CCOCC2)CC1 [I-N-177, 2-amino-6-fluoro-N-(4-(4-((tetrahydro-2H-pyran-4-yl)sulfonyl)piperazin-1-yl)pyridin-3-yl)pyrazolo[1,5-a]pyrimidine-3-carboxamide]	+++ (Compounds with a Cisplatin sensitization value of <0.02 μM are marked with “+++.”)
CC(C)(C#N)c1cnc2c(C(=O)Nc3cncc(F)c3N3CCN(C4COC4)CC3)c(N)nn2c1 [I-N-144]	+++ (Compounds with a Cisplatin sensitization value of <0.02 μM are marked with “+++.”)
Nc1nn2cc(F)cnc2c1C(=O)Nc1cncc(F)c1N1CCC(C(=O)N2CCC(N3CCCCC3)C2)CC1 (centres unmarked) [I-G-64, 2-amino-6-fluoro-N-(5-fluoro-4-(4-(3-(piperidin-1-yl)pyrrolidine-1-carbonyl)piperidin-1-yl)pyridin-3-yl)pyrazolo[1,5-a]pyrimidine-3-carboxamide]	+++ (Compounds with a Cisplatin sensitization value of <0.02 μM are marked with “+++.”)
CN1CCN(c2ccncc2NC(=O)c2c(N)nn3cc(C(C)(C)C#N)cnc23)CC1 [I-N-76, 2-amino-6-(2-cyanopropan-2-yl)-N-(4-(4-methylpiperazin-1-yl)pyridin-3-yl)pyrazolo[1,5-a]pyrimidine-3-carboxamide]	+++ (Compounds with a Cisplatin sensitization value of <0.02 μM are marked with “+++.”)
Nc1nn2cc(F)cnc2c1C(=O)Nc1cnccc1O[C@H]1CCCN(C2COC2)C1 [I-O-9, (S)-2-amino-6-fluoro-N-(4-((1-(oxetan-3-yl)piperidin-3-yl)oxy)pyridin-3-yl)pyrazolo[1,5-a]pyrimidine-3-carboxamide]	++ (Compounds with a Cisplatin sensitization value >0.02 μM but <0.2 μM are marked with “++.”)
Cc1nnc(C2CCN(c3ccncc3NC(=O)c3c(N)nn4cc(F)cnc34)CC2)o1 [I-N-265, 2-amino-6-fluoro-N-(4-(4-(5-methyl-1,3,4-oxadiazol-2-yl)piperidin-1-yl)pyridin-3-yl)pyrazolo[1,5-a]pyrimidine-3-carboxamide]	++ (Compounds with a Cisplatin sensitization value >0.02 μM but <0.2 μM are marked with “++.”)
Nc1nn2cc(F)cnc2c1C(=O)Nc1cncc(F)c1N1CCN(S(=O)(=O)C2CCOCC2)CC1 [I-N-158, 2-amino-6-fluoro-N-(5-fluoro-4-(4-((tetrahydro-2H-pyran-4-yl)sulfonyl)piperazin-1-yl)pyridin-3-yl)pyrazolo[1,5-a]pyrimidine-3-carboxamide]	+++ (Compounds with a Cisplatin sensitization value of <0.02 μM are marked with “+++.”)
CN1CCC(Oc2ccncc2NC(=O)c2c(N)nn3cc(F)cnc23)CC1 [I-O-12, 2-amino-6-fluoro-N-(4-((1-methylpiperidin-4-yl)oxy)pyridin-3-yl)pyrazolo[1,5-a]pyrimidine-3-carboxamide]	+++ (Compounds with a Cisplatin sensitization value of <0.02 μM are marked with “+++.”)
CN1CCOCC1C(=O)N1CCN(c2c(F)cncc2NC(=O)c2c(N)nn3cc(F)cnc23)CC1 (centres unmarked) [I-N-227, 2-amino-6-fluoro-N-(5-fluoro-4-(4-(4-methylmorpholine-3-carbonyl)piperazin-1-yl)pyridin-3-yl)pyrazolo[1,5-a]pyrimidine-3-carboxamide]	+++ (Compounds with a Cisplatin sensitization value of <0.02 μM are marked with “+++.”)
CNC(=O)C1CCN(c2c(F)cncc2NC(=O)c2c(N)nn3cc(F)cnc23)CC1 [I-G-33, 2-amino-6-fluoro-N-(5-fluoro-4-(4-(methylcarbamoyl)piperidin-1-yl)pyridin-3-yl)pyrazolo[1,5-a]pyrimidine-3-carboxamide]	+++ (Compounds with a Cisplatin sensitization value of <0.02 μM are marked with “+++.”)
Nc1nn2cc(F)cnc2c1C(=O)Nc1cncc(F)c1N1CCC(C(=O)N2CC(O)C2)CC1 [I-G-41, 2-amino-6-fluoro-N-(5-fluoro-4-(4-(3-hydroxyazetidine-1-carbonyl)piperidin-1-yl)pyridin-3-yl)pyrazolo[1,5-a]pyrimidine-3-carboxamide]	+++ (Compounds with a Cisplatin sensitization value of <0.02 μM are marked with “+++.”)
C[C@H]1CN(C2COC2)CCN1c1ccncc1NC(=O)c1c(N)nn2cc(F)cnc12 [I-N-24, (S)-2-amino-6-fluoro-N-(4-(2-methyl-4-(oxetan-3-yl)piperazin-1-yl)pyridin-3-yl)pyrazolo[1,5-a]pyrimidine-3-carboxamide]	+++ (Compounds with a Cisplatin sensitization value of <0.02 μM are marked with “+++.”)
Nc1nn2cc(F)cnc2c1C(=O)Nc1cncc(F)c1N1CCN(C2COC2)CC1 [I-N-13, 2-amino-6-fluoro-N-(5-fluoro-4-(4-(oxetan-3-yl)piperazin-1-yl)pyridin-3-yl)pyrazolo[1,5-a]pyrimidine-3-carboxamide]	+++ (Compounds with a Cisplatin sensitization value of <0.02 μM are marked with “+++.”)
Nc1nn2cc(F)cnc2c1C(=O)Nc1cncc(F)c1N1CCC(C(=O)N2CCN3CCC2C3)CC1 (centres unmarked) [I-G-46, N-(4-(4-(1,4-diazabicyclo[3.2.1]octane-4-carbonyl)piperidin-1-yl)-5-fluoropyridin-3-yl)-2-amino-6-fluoropyrazolo[1,5-a]pyrimidine-3-carboxamide]	+++ (Compounds with a Cisplatin sensitization value of <0.02 μM are marked with “+++.”)
Nc1nn2cc(Cl)cnc2c1C(=O)Nc1cncc(F)c1N1CCN(C2COC2)CC1 [I-N-117, 2-amino-6-chloro-N-(5-fluoro-4-(4-(oxetan-3-yl)piperazin-1-yl)pyridin-3-yl)pyrazolo[1,5-a]pyrimidine-3-carboxamide]	+++ (Compounds with a Cisplatin sensitization value of <0.02 μM are marked with “+++.”)
COCCOc1ccncc1NC(=O)c1c(N)nn2cc(CC#N)cnc12 [I-O-29, 2-amino-6-(cyanomethyl)-N-(4-(2-methoxyethoxy)pyridin-3-yl)pyrazolo[1,5-a]pyrimidine-3-carboxamide]	+++ (Compounds with a Cisplatin sensitization value of <0.02 μM are marked with “+++.”)
Nc1nn2cc(F)cnc2c1C(=O)Nc1cnccc1N1CCN(C2CCOCC2)CC1 [I-N-11, 2-amino-6-fluoro-N-(4-(4-(tetrahydro-2H-pyran-4-yl)piperazin-1-yl)pyridin-3-yl)pyrazolo[1,5-a]pyrimidine-3-carboxamide]	++ (Compounds with a Cisplatin sensitization value >0.02 μM but <0.2 μM are marked with “++.”)
N#CCc1cnc2c(C(=O)Nc3cnccc3O[C@@H]3CCOC3)c(N)nn2c1 [I-O-31, (R)-2-amino-6-(cyanomethyl)-N-(4-((tetrahydrofuran-3-yl)oxy)pyridin-3-yl)pyrazolo[1,5-a]pyrimidine-3-carboxamide]	+++ (Compounds with a Cisplatin sensitization value of <0.02 μM are marked with “+++.”)
CN1CCN(C(=O)c2ccc(-c3c(F)cncc3NC(=O)c3c(N)nn4cc(F)cnc34)cc2)CC1 [I-C-43, 2-amino-6-fluoro-N-(5-fluoro-4-(4-(4-methylpiperazine-1-carbonyl)phenyl)pyridin-3-yl)pyrazolo[1,5-a]pyrimidine-3-carboxamide]	+++ (Compounds with a Cisplatin sensitization value of <0.02 μM are marked with “+++.”)
CN1CCN(C2CCN(c3c(F)cncc3NC(=O)c3c(N)nn4cc(F)cnc34)CC2)C(=O)C1 [I-N-151, 2-amino-6-fluoro-N-(5-fluoro-4-(4-(4-methyl-2-oxopiperazin-1-yl)piperidin-1-yl)pyridin-3-yl)pyrazolo[1,5-a]pyrimidine-3-carboxamide]	+ (Compounds with a Cisplatin sensitization value >0.2 μM but <5 μM are marked with “+.”)
N#CCc1cnc2c(C(=O)Nc3cnccc3N3CCOCC3)c(N)nn2c1 [I-N-81, 2-amino-6-(cyanomethyl)-N-(4-morpholinopyridin-3-yl)pyrazolo[1,5-a]pyrimidine-3-carboxamide]	+++ (Compounds with a Cisplatin sensitization value of <0.02 μM are marked with “+++.”)
CN1CCC(C(=O)N2CCN(c3c(F)cncc3NC(=O)c3c(N)nn4cc(F)cnc34)CC2)CC1 [I-N-128, 2-amino-6-fluoro-N-(5-fluoro-4-(4-(1-methylpiperidine-4-carbonyl)piperazin-1-yl)pyridin-3-yl)pyrazolo[1,5-a]pyrimidine-3-carboxamide]	+++ (Compounds with a Cisplatin sensitization value of <0.02 μM are marked with “+++.”)
CN(C)CCOCCOc1ccncc1NC(=O)c1c(N)nn2cc(Cl)cnc12 [I-O-47, 2-amino-6-chloro-N-(4-(2-(2-(dimethylamino)ethoxy)ethoxy)pyridin-3-yl)pyrazolo[1,5-a]pyrimidine-3-carboxamide]	+ (Compounds with a Cisplatin sensitization value >0.2 μM but <5 μM are marked with “+.”)
Nc1nn2cc(F)cnc2c1C(=O)Nc1cnccc1N1CCCC2(COC2)C1 [I-N-253, N-(4-(2-oxa-6-azaspiro[3.5]nonan-6-yl)pyridin-3-yl)-2-amino-6-fluoropyrazolo[1,5-a]pyrimidine-3-carboxamide]	+++ (Compounds with a Cisplatin sensitization value of <0.02 μM are marked with “+++.”)
CN(C)C1CCCN(c2ccncc2NC(=O)c2c(N)nn3cc(Cl)cnc23)C1 (centres unmarked) [I-N-40, 2-amino-6-chloro-N-(4-(3-(dimethylamino)piperidin-1-yl)pyridin-3-yl)pyrazolo[1,5-a]pyrimidine-3-carboxamide]	++ (Compounds with a Cisplatin sensitization value >0.02 μM but <0.2 μM are marked with “++.”)
